Source: patent US11840541B2 (priority 2014, dated 2023)

biological target: T1, Human MOR (Homo sapiens, UniProt P35372); experiment: cell-based; settings: EC50 at indicated opioid receptor, Human MOR
T1 construct: expressed in transfected cells; host or cells: HEK-293T
T1 sequence (P35372 whole entry): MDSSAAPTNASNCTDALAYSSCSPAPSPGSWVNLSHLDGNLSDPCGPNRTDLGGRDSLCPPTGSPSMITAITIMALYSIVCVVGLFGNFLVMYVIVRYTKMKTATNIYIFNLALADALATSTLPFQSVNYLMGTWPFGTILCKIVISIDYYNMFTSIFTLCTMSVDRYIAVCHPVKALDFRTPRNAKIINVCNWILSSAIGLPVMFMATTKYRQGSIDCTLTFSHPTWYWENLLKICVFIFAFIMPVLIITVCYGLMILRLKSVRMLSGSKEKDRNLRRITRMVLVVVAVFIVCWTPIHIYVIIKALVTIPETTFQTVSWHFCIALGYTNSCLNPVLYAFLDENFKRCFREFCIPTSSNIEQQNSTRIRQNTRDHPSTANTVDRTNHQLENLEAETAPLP

| Compound | EC50 [µM] |
| --- | --- |
| CCC1CC2CC3c4oc5ccc(F)cc5c4CCN(C2)C13 (stereo not drawn) [Compound 34j] | > 10 |
| Oc1ccc2oc3c(c2c1)CCN1CC2CC(c4ccccc4)C1C3C2 (stereo not drawn) [Compound 35l] | > 10 |
| CCC1CC2CC3c4oc5cccc(O)c5c4CCN(C2)C13 (stereo not drawn) [Compound 52b] | > 10 |
| CCC1CC2CC3c4oc5cc(OC)ccc5c4CCN(C2)C13 (stereo not drawn) [Compound 34k] | < 10 |
| CCC1CC2CC3c4sc5ccc(O)cc5c4CCN(C2)C13 (stereo not drawn) [Compound 35n] | < 10 |
| Oc1ccc2oc3c(c2c1)CCN1CC2CC(c4ccccc4)C1C3C2 (stereo not drawn) [Compound 35m] | < 10 |
| OCC1CC2CC3c4oc5ccc(O)cc5c4CCN(C2)C13 (stereo not drawn) [Compound 35j] | < 10 |
| CCCCC1CC2CC3c4oc5ccc(OC)cc5c4CCN(C2)C13 (stereo not drawn) [Compound 34i] | > 10 |
| CCCC1CC2CC3c4oc5ccc(OC)cc5c4CCN(C2)C13 (stereo not drawn) [Compound 34e] | > 10 |
| CCC1CC2CC3c4oc5ccccc5c4CCN(C2)C13 (stereo not drawn) [Compound 34a, 7-ethyl-6,6a,7,8,9,10,12,13-octahydro-6,9-methanobenzofuro[2,3-d] pyrido[1,2-a]azepine] | > 100 |
| CCC1CC2CC3c4oc5ccc(OC)cc5c4CCN(C2)C13 (single isomer, unassigned) [Compound 34c] | > 10 |
| CCC1CC2CC3c4oc5cc(O)ccc5c4CCN(C2)C13 (stereo not drawn) [Compound 35f] | < 10 |
| COc1ccc2oc3c(c2c1)CCN1CC2CCC1C3C2 (stereo not drawn) [Compound 34h] | > 100 |
| CCC1CC2CC3c4oc5ccc(OC)cc5c4CCN(C2)C13 (single isomer, unassigned) [Compound 34d] | > 100 |
| COc1ccc2oc3c(c2c1)CCN1CC2CC(c4ccccc4)C1C3C2 (stereo not drawn) [Compound 34n] | > 100 |
| COCC1CC2CC3c4oc5ccc(OC)cc5c4CCN(C2)C13 (stereo not drawn) [Compound 34m] | > 10 |
| CCC1CC2CC3c4sc5ccccc5c4CCN(C2)C13 (stereo not drawn) [Compound 34q, 7-ethyl-6,6a,7,8,9,10,12,13-octahydro-6,9-methanobenzo[4,5] thieno[2,3-d]pyrido[1,2-a]azepine] | > 100 |
| CCC1CC2CC3c4oc5cc(F)c(O)cc5c4CCN(C2)C13 (stereo not drawn) [Compound 35k] | < 10 |
| CCC1CC2CC3c4sc5ccc(OC)cc5c4CCN(C2)C13 (stereo not drawn) [Compound 34r] | > 10 |
| Oc1ccc2oc3c(c2c1)CCN1CC2CCC1C3C2 (stereo not drawn) [Compound 35e] | < 10 |
| CCCC1CC2CC3c4oc5ccc(OC)cc5c4CCN(C2)C13 (stereo not drawn) [Compound 34f] | > 100 |

same assay, conditions: read-out: EC50, Human MOR

| Compound | EC50 [µM] |
| --- | --- |
| CCC1CC2(C)CC3c4oc5ccc(O)cc5c4CCN(C2)C13 (single isomer, unassigned) [Compound 60b] | < 10 |

same assay, conditions: read-out: Emax in parentheses, Human MOR

| Compound | Emax [%] |
| --- | --- |
| CCC1CC2CC3c4oc5ccc(O)cc5c4C[C@@H](C)N(C2)C13 (stereo partly drawn) [α-endo-52e] | 24 |

biological target: T2, Human KOR (Homo sapiens, UniProt P41145); experiment: cell-based; settings: EC50 at indicated opioid receptor, Human KOR
T2 construct: expressed in transfected cells; host or cells: HEK-293T
T2 sequence (P41145 whole entry): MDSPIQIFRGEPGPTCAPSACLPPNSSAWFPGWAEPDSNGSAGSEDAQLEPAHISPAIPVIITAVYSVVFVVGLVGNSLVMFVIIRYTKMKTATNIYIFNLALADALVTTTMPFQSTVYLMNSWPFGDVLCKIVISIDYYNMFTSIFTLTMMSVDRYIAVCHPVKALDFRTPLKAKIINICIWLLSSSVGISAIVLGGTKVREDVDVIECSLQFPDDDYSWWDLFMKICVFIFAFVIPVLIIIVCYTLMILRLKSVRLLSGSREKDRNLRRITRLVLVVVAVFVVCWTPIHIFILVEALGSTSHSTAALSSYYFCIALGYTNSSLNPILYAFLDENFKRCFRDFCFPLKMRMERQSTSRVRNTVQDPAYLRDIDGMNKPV

| Compound | EC50 [µM] |
| --- | --- |
| CCC1CC2CC3c4oc5ccc(F)cc5c4CCN(C2)C13 (stereo not drawn) [Compound 34j] | > 10 |
| Oc1ccc2oc3c(c2c1)CCN1CC2CC(c4ccccc4)C1C3C2 (stereo not drawn) [Compound 35l] | > 10 |
| CCC1CC2CC3c4oc5cccc(O)c5c4CCN(C2)C13 (stereo not drawn) [Compound 52b] | > 100 |
| CCC1CC2CC3c4oc5cc(OC)ccc5c4CCN(C2)C13 (stereo not drawn) [Compound 34k] | < 10 |
| CCC1CC2CC3c4sc5ccc(O)cc5c4CCN(C2)C13 (stereo not drawn) [Compound 35n] | < 10 |
| Oc1ccc2oc3c(c2c1)CCN1CC2CC(c4ccccc4)C1C3C2 (stereo not drawn) [Compound 35m] | > 100 |
| OCC1CC2CC3c4oc5ccc(O)cc5c4CCN(C2)C13 (stereo not drawn) [Compound 35j] | < 10 |
| CCCCC1CC2CC3c4oc5ccc(OC)cc5c4CCN(C2)C13 (stereo not drawn) [Compound 34i] | > 10 |
| CCCC1CC2CC3c4oc5ccc(OC)cc5c4CCN(C2)C13 (stereo not drawn) [Compound 34e] | > 100 |
| CCC1CC2CC3c4oc5ccccc5c4CCN(C2)C13 (stereo not drawn) [Compound 34a, 7-ethyl-6,6a,7,8,9,10,12,13-octahydro-6,9-methanobenzofuro[2,3-d] pyrido[1,2-a]azepine] | > 10 |
| CCC1CC2CC3c4oc5cc(O)ccc5c4CCN(C2)C13 (stereo not drawn) [Compound 35f] | < 10 |
| COc1ccc2oc3c(c2c1)CCN1CC2CCC1C3C2 (stereo not drawn) [Compound 34h] | > 10 |
| CCC1CC2CC3c4oc5ccc(OC)cc5c4CCN(C2)C13 (single isomer, unassigned) [Compound 34d] | > 10 |
| COc1ccc2oc3c(c2c1)CCN1CC2CC(c4ccccc4)C1C3C2 (stereo not drawn) [Compound 34n] | > 10 |
| COCC1CC2CC3c4oc5ccc(OC)cc5c4CCN(C2)C13 (stereo not drawn) [Compound 34m] | > 10 |
| CCC1CC2CC3c4sc5ccccc5c4CCN(C2)C13 (stereo not drawn) [Compound 34q, 7-ethyl-6,6a,7,8,9,10,12,13-octahydro-6,9-methanobenzo[4,5] thieno[2,3-d]pyrido[1,2-a]azepine] | > 10 |
| CCC1CC2CC3c4oc5cc(F)c(O)cc5c4CCN(C2)C13 (stereo not drawn) [Compound 35k] | < 10 |
| CCC1CC2CC3c4sc5ccc(OC)cc5c4CCN(C2)C13 (stereo not drawn) [Compound 34r] | > 10 |
| Oc1ccc2oc3c(c2c1)CCN1CC2CCC1C3C2 (stereo not drawn) [Compound 35e] | < 10 |
| CCCC1CC2CC3c4oc5ccc(OC)cc5c4CCN(C2)C13 (stereo not drawn) [Compound 34f] | > 10 |

same assay, conditions: read-out: EC50, Human KOR

| Compound | EC50 [µM] |
| --- | --- |
| CCC1CC2(C)CC3c4oc5ccc(O)cc5c4CCN(C2)C13 (single isomer, unassigned) [Compound 60b] | < 10 |

same assay, conditions: read-out: EC50 at indicated opioid receptor, Human KOR

| Compound | EC50 [µM] |
| --- | --- |
| CCC1CC2CC3c4oc5ccc(OC)cc5c4CCN(C2)C13 (single isomer, unassigned) [Compound 34c] | > 10 |

same assay, conditions: read-out: Emax in parentheses, Human KOR

| Compound | Emax [%] |
| --- | --- |
| CCC1CC2CC3c4oc5ccc(O)cc5c4C[C@@H](C)N(C2)C13 (stereo partly drawn) [α-endo-52e] | 26 |

biological target: T3, Human DOR (Homo sapiens, UniProt P41143); experiment: cell-based; settings: EC50, Human DOR
T3 construct: expressed in transfected cells; host or cells: HEK-293T
T3 sequence (P41143 whole entry): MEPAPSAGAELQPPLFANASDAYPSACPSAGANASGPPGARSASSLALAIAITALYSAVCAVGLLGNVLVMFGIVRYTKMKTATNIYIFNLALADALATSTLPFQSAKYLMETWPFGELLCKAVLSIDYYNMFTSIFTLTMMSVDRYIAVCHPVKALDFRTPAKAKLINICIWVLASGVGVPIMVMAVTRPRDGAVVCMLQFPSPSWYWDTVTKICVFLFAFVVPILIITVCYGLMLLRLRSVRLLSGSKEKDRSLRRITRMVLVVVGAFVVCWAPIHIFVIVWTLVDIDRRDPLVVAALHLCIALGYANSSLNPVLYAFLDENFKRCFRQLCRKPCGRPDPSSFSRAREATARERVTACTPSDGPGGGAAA

| Compound | EC50 [µM] |
| --- | --- |
| CCC1CC2(C)CC3c4oc5ccc(O)cc5c4CCN(C2)C13 (single isomer, unassigned) [Compound 60b] | < 10 |

same assay, conditions: EC50 at indicated opioid receptor, Human DOR

| Compound | EC50 [µM] |
| --- | --- |
| CCC1CC2CC3c4oc5ccc(O)cc5c4C[C@@H](C)N(C2)C13 (stereo partly drawn) [α-endo-52e] | > 100 |
| CCC1CC2CC3c4oc5ccc(F)cc5c4CCN(C2)C13 (stereo not drawn) [Compound 34j] | > 100 |
| Oc1ccc2oc3c(c2c1)CCN1CC2CC(c4ccccc4)C1C3C2 (stereo not drawn) [Compound 35l] | > 10 |
| CCC1CC2CC3c4oc5cccc(O)c5c4CCN(C2)C13 (stereo not drawn) [Compound 52b] | > 100 |
| CCC1CC2CC3c4oc5cc(OC)ccc5c4CCN(C2)C13 (stereo not drawn) [Compound 34k] | > 10 |
| CCC1CC2CC3c4sc5ccc(O)cc5c4CCN(C2)C13 (stereo not drawn) [Compound 35n] | > 100 |
| Oc1ccc2oc3c(c2c1)CCN1CC2CC(c4ccccc4)C1C3C2 (stereo not drawn) [Compound 35m] | < 10 |
| OCC1CC2CC3c4oc5ccc(O)cc5c4CCN(C2)C13 (stereo not drawn) [Compound 35j] | < 10 |
| CCCCC1CC2CC3c4oc5ccc(OC)cc5c4CCN(C2)C13 (stereo not drawn) [Compound 34i] | > 100 |
| CCCC1CC2CC3c4oc5ccc(OC)cc5c4CCN(C2)C13 (stereo not drawn) [Compound 34e] | > 100 |
| CCC1CC2CC3c4oc5ccccc5c4CCN(C2)C13 (stereo not drawn) [Compound 34a, 7-ethyl-6,6a,7,8,9,10,12,13-octahydro-6,9-methanobenzofuro[2,3-d] pyrido[1,2-a]azepine] | > 100 |
| CCC1CC2CC3c4oc5cc(O)ccc5c4CCN(C2)C13 (stereo not drawn) [Compound 35f] | > 10 |
| COc1ccc2oc3c(c2c1)CCN1CC2CCC1C3C2 (stereo not drawn) [Compound 34h] | > 100 |
| CCC1CC2CC3c4oc5ccc(OC)cc5c4CCN(C2)C13 (single isomer, unassigned) [Compound 34d] | > 100 |
| COc1ccc2oc3c(c2c1)CCN1CC2CC(c4ccccc4)C1C3C2 (stereo not drawn) [Compound 34n] | > 100 |
| COCC1CC2CC3c4oc5ccc(OC)cc5c4CCN(C2)C13 (stereo not drawn) [Compound 34m] | > 10 |
| CCC1CC2CC3c4sc5ccccc5c4CCN(C2)C13 (stereo not drawn) [Compound 34q, 7-ethyl-6,6a,7,8,9,10,12,13-octahydro-6,9-methanobenzo[4,5] thieno[2,3-d]pyrido[1,2-a]azepine] | > 100 |
| CCC1CC2CC3c4oc5cc(F)c(O)cc5c4CCN(C2)C13 (stereo not drawn) [Compound 35k] | < 10 |
| CCC1CC2CC3c4sc5ccc(OC)cc5c4CCN(C2)C13 (stereo not drawn) [Compound 34r] | > 100 |
| Oc1ccc2oc3c(c2c1)CCN1CC2CCC1C3C2 (stereo not drawn) [Compound 35e] | > 100 |

same assay, conditions: read-out: EC50 at indicated opioid receptor, Human DOR

| Compound | EC50 [µM] |
| --- | --- |
| CCC1CC2CC3c4oc5ccc(OC)cc5c4CCN(C2)C13 (single isomer, unassigned) [Compound 34c] | > 100 |
| CCCC1CC2CC3c4oc5ccc(OC)cc5c4CCN(C2)C13 (stereo not drawn) [Compound 34f] | > 100 |
